Laboratory results: patent US9955691B2, “Macrocyclic picolinamides as fungicides” (DOW AGROSCIENCES LLC, priority 2014, dated 2018)

Assays:
Format in all cases: in vivo
Phakopsora pachyrhizi = assay: Fungicidal activity: Asian Soybean Rust (PHAKPA); conditions: 25 ppm, 1DP (1 Day Protectant)
Procedure: Evaluation of Fungicidal Activity: Asian Soybean Rust (Phakopsora pachyrhizi; Bayer Code PHAKPA)
Technical grades of materials were dissolved in acetone, which were then mixed with nine volumes of water containing 0.011% Tween 20. The fungicide solutions were applied onto soybean seedlings using an automated booth sprayer to run-off. All sprayed plants were allowed to air dry prior to further handling.
Soybean plants (variety Williams 82) were grown in soil-less Metro mix, with one plant per pot. Two weeks old seedlings were used for testing. Plants were inoculated either 3 days prior to or 1 day after fungicide treatments. Plants were incubated for 24 h in a dark dew room at 22° C. and 100% relative humidity then transferred to a growth room at 23° C. for disease to develop. Disease severity was assessed on the sprayed leaves.

Leptosphaeria nodorum = assay: Fungicidal activity: Wheat Glume Blotch (LEPTNO); conditions: 100 ppm, 1 DP (1 Day Protectant)
Procedure: Technical grades of materials were dissolved in acetone, which were then mixed with nine volumes of water containing 110 ppm Triton X-100. The fungicide solutions were applied onto wheat seedlings using an automated booth sprayer to run-off. All sprayed plants were allowed to air dry prior to further handling. All fungicides were evaluated using the aforementioned method for their activity vs. all target diseases, unless stated otherwise. Wheat leaf blotch and brown rust activity were also evaluated using track spray applications, in which case the fungicides were formulated as EC formulations, containing 0.1% Trycol 5941 in the spray solutions. Wheat plants (variety Yuma) were grown from seed in a greenhouse in 50% mineral soil/50% soil-less Metro mix until the first leaf was fully emerged, with 7-10 seedlings per pot. These plants were inoculated with an aqueous spore suspension of Septoria tritici either prior to or after fungicide treatments. After inoculation the plants were kept in 100% relative humidity (one day in a dark dew chamber followed by two to three days in a lighted dew chamber at 20° C.) to permit spores to germinate and infect the leaf. The plants were then transferred to a greenhouse set at 20° C. for disease to develop. When disease symptoms were fully expressed on the 1st leaves of untreated plants, infection levels were assessed on a scale of 0 to 100 percent disease severity. Percent disease control was calculated using the ratio of disease severity on treated plants relative to untreated plants. Evaluation of Fungicidal Activity: Wheat Glume Blotch (Leptosphaeria nodorum; Bayer Code […]) Wheat plants (variety Yuma) were grown from seed in a greenhouse in 50% mineral soil/50% soil-less Metro mix until the first leaf was fully emerged, with 7-10 seedlings per pot. These plants were inoculated with an aqueous spore suspension of Leptosphaeria nodorum 24 hr after fungicide treatments. After inoculation the plants were kept in 100% relative humidity (one day in a dark dew chamber followed by two days in a lighted dew chamber at 20° C.) to permit spores to germinate and infect the leaf. The plants were then transferred to a greenhouse set at 20° C. for disease to develop. Fungicide formulation, application and disease assessment followed the procedures as described in the Example A.

Venturia inaequalis = assay: Fungicidal activity: Apple Scab (VENTIN); conditions: 100 ppm, 1 DP (1 Day Protectant)
Rhyncosporium secalis = assay: Fungicidal activity: Barley Scald (RHYNSE); conditions: 100 ppm, 1 DP (1 Day Protectant)
Procedure: Technical grades of materials were dissolved in acetone, which were then mixed with nine volumes of water containing 110 ppm Triton X-100. The fungicide solutions were applied onto wheat seedlings using an automated booth sprayer to run-off. All sprayed plants were allowed to air dry prior to further handling. All fungicides were evaluated using the aforementioned method for their activity vs. all target diseases, unless stated otherwise. Wheat leaf blotch and brown rust activity were also evaluated using track spray applications, in which case the fungicides were formulated as EC formulations, containing 0.1% Trycol 5941 in the spray solutions. Wheat plants (variety Yuma) were grown from seed in a greenhouse in 50% mineral soil/50% soil-less Metro mix until the first leaf was fully emerged, with 7-10 seedlings per pot. These plants were inoculated with an aqueous spore suspension of Septoria tritici either prior to or after fungicide treatments. After inoculation the plants were kept in 100% relative humidity (one day in a dark dew chamber followed by two to three days in a lighted dew chamber at 20° C.) to permit spores to germinate and infect the leaf. The plants were then transferred to a greenhouse set at 20° C. for disease to develop. When disease symptoms were fully expressed on the 1st leaves of untreated plants, infection levels were assessed on a scale of 0 to 100 percent disease severity. Percent disease control was calculated using the ratio of disease severity on treated plants relative to untreated plants. Evaluation of Fungicidal Activity: Barley Scald (Rhyncosporium secalis; Bayer Code […]) Barley seedlings (variety Harrington) were propagated in soil-less Metro mix, with each pot having 8 to 12 plants, and used in the test when first leaf was fully emerged. Test plants were inoculated by an aqueous spore suspension of Rhyncosporium secalis 24 hr after fungicide treatments. After inoculation the plants were kept in a dew room at 20° C. with 100% relative humidity for 48 hr. The plants were then transferred to a greenhouse set at 20° C. for disease to develop. Fungicide formulation, application and disease assessment on the sprayed leaves followed the procedures as described in the Example A.

Erysiphe cichoracearum = assay: Fungicidal activity: Powdery Mildew of Cucumber (ERYSCI); conditions: 100 ppm, 1 DP (1 Day Protectant)
Uncinula necator = assay: Fungicidal activity: Grape Powdery Mildew (UNCINE); conditions: 100 ppm, 1 DP (1 Day Protectant)
Procedure: Technical grades of materials were dissolved in acetone, which were then mixed with nine volumes of water containing 110 ppm Triton X-100. The fungicide solutions were applied onto wheat seedlings using an automated booth sprayer to run-off. All sprayed plants were allowed to air dry prior to further handling. All fungicides were evaluated using the aforementioned method for their activity vs. all target diseases, unless stated otherwise. Wheat leaf blotch and brown rust activity were also evaluated using track spray applications, in which case the fungicides were formulated as EC formulations, containing 0.1% Trycol 5941 in the spray solutions. Wheat plants (variety Yuma) were grown from seed in a greenhouse in 50% mineral soil/50% soil-less Metro mix until the first leaf was fully emerged, with 7-10 seedlings per pot. These plants were inoculated with an aqueous spore suspension of Septoria tritici either prior to or after fungicide treatments. After inoculation the plants were kept in 100% relative humidity (one day in a dark dew chamber followed by two to three days in a lighted dew chamber at 20° C.) to permit spores to germinate and infect the leaf. The plants were then transferred to a greenhouse set at 20° C. for disease to develop. When disease symptoms were fully expressed on the 1st leaves of untreated plants, infection levels were assessed on a scale of 0 to 100 percent disease severity. Percent disease control was calculated using the ratio of disease severity on treated plants relative to untreated plants. Evaluation of Fungicidal Activity: Grape Powdery Mildew (Uncinula necator; Bayer code […]) Grape seedlings (variety Carignane) were grown in soil-less Metro mix, with one plant per pot, and used in the test when approximately one month old. Plants were inoculated 24 hr after fungicide treatment by shaking spores from infected leaves over test plants. Plants were maintained in a greenhouse set at 20° C. until disease was fully developed. […]

[1] = tested on: Blumeria graminis f. sp. tritici; assay: Fungicidal activity: Wheat Powdery Mildew (ERYSGT); conditions: 100 ppm, 1 DP (1 Day Protectant)

SMILES | PHAKPA disease control rating (Phakopsora pachyrhizi) | LEPTNO disease control rating (Leptosphaeria nodorum) | VENTIN disease control rating (Venturia inaequalis) | RHYNSE disease control rating (Rhyncosporium secalis) | ERYSCI disease control rating (Erysiphe cichoracearum) | UNCINE disease control rating (Uncinula necator) | ERYSGT disease control rating [1]
COc1ccnc(C(=O)N[C@H]2COC[C@H](Cc3ccccc3)[C@@H](Cc3ccccc3)[C@H](C)OC2=O)c1OCOC(C)=O [Cmpd. 3, ((2-(((3S,7R,8R,9S)-7,8-dibenzyl-9-methyl-2-oxo-1,5-dioxonan-3-yl)carbamoyl)-4-methoxypyridin-3-yl)oxy)methyl acetate] | A (>70) | A (>70) |  |  |  |  | 
CCCC[C@@H]1[C@@H](Cc2ccccc2)COC[C@H](NC(=O)c2nccc(OC)c2OCOC(=O)C(C)C)C(=O)O[C@H]1C [compound 1] |  | A (>70) | B (≤70) | A (>70) | A (>70) | A (>70) | 
COc1ccnc(C(=O)N[C@H]2COC[C@H](c3ccccc3)[C@@H](c3ccccc3)[C@H](C)OC2=O)c1OCOC(C)=O [compound 7] |  |  |  |  | A (>70) | A (>70) | A (>70)
CCCC[C@@H]1[C@@H](Cc2ccc(C(F)(F)F)cc2)COC[C@H](NC(=O)c2nccc(OC)c2OCOC(C)=O)C(=O)O[C@H]1C [compound 16] |  | A (>70) | A (>70) | A (>70) | A (>70) | A (>70) | 
COc1ccnc(C(=O)N[C@H]2COC[C@H](Cc3ccccc3)[C@@H](Cc3ccccc3)[C@H](C)OC2=O)c1OC(C)=O [compound 27] |  | A (>70) |  | A (>70) | B (≤70) |  | 
COc1ccnc(C(=O)N[C@H]2COC[C@H](CC3CC3)[C@@H](c3ccccc3)[C@H](C)OC2=O)c1OC(C)=O [compound 100] |  | A (>70) |  | B (≤70) | A (>70) |  | 
